Results reported in US9708268B2, “ROR modulators and their uses” (INNOV17 LLC, priority 2012, dated 2017).

Experiments:
IL-17A [1] = assay: Real-time qRT-PCR gene expression in TH17 cells (IL-17A); assay type: cell-based, human; design: key: A: No change in gene expression observed relative to DMSO treated TH17 cells; B: Decreased gene expression observed relative to DMSO treated TH17 cells; C: Increased gene expression observed relative to DMSO treated TH17 cells; details: mRNA
Experimental: (§1) Peripheral blood mononuclear cells (PBMCs) were sourced from freshly prepared leukocyte enriched plasma (buffy coat) from healthy volunteers from which PBMCs were isolated by density gradient centrifugation using Ficoll-Paque™ PLUS (GE Healthcare). Naïve CD4+ T cells were isolated using the Naïve CD4+ T cell Isolation Kit II (Miltenyi Biotec) as per manufacturer's instructions. CD4+ T cells were plated at 5×10^4 cells/well in 96 well plates pre-coated with immobilized human (h)-αCD3 antibody (eBioscience) then differentiated to TH17 cells using h-αCD28, h-αIFN-γ, h-αIL-4, h-IL-6, h-IL-23, […], h-TGF-β1 (eBioscience) and maintained in a cell culture incubator at 37° C. with 5% CO2 in TexMACS Medium (Miltenyi Biotec) supplemented with 1% Penicillin/Streptomycin (Lonza) over 5 days.
(§2) RNA was isolated from TH17 cells and cDNA was synthesized using the Verso cDNA kit (Thermo Scientific) as per manufacturer's instructions. IL-17A, IL-17F, IL-21, IL-22, G-CSF, IL-23R and FOXP3 gene expression were determined for compound treated and untreated TH17 cell samples using Solaris qPCR Gene expression assays (Thermo Scientific) with an iCycler iQ Real-Time PCR Detection System (Bio-Rad). Individual gene expression was normalized to a panel of six reference genes (ACTB, TBP, HPRT1, PGK1, TFRC and PPIA) (Thermo Scientific) and analyzed by REST 2009 (Qiagen) in accordance to MIQE guidelines (Bustin, et al. (2009) Clin. Chem. 55, 611-622), which is hereby incorporated by reference in its entirety). The effects of compounds on TH17 cytokine mRNA levels are presented as fold change in gene expression of compound treated TH17 cells relative to DMSO treated cells in the table below.

TH17 cells = assay: TH17 cellular proliferation (Prestoblue); assay type: cell-based, human; details: 3 μM compound, after 5 day TH17 differentiation, relative to DMSO treated cells
Experimental: as §1
Cellular proliferation was assessed in the presence or absence of 3 μM compound using Prestoblue® Cell Viability Reagent (Life Technologies) as per manufacturer's instructions using absorbance as the output measured by a microplate reader (Perkin Elmer) after 30 minutes of incubation of cells and reagent. A standard curve developed by plotting varying cell numbers versus absorbance was used to assess differences in cellular proliferation between compound treated or untreated cells after the 5 day TH17 differentiation period.

IL-17F [2] = assay: TH17 cytokine inhibition as measured by ELISA (IL-17F); assay type: cell-based; details: 120 h; human CD4+ T cells differentiated to TH17 over 5 days, supernatant ELISA, vs DMSO
Experimental: as §1
(§3) Human CD4+ T cells were differentiated to TH17 cells as described in the presence or absence of various concentrations of compounds in a final concentration of 0.1% DMSO in TexMACS medium. Supernatants were collected and stored at −20° C. until they were to be assayed for IL-17A, IL-17F, IL-17AF, IL-21 and/or IL-22 levels as determined by Ready-Set-Go ELISA kits (eBioscience) as per manufacturer's instructions. Endpoint absorbance was read at 450 nm and 570 nm according to manufacturer's instructions (eBioscience) using a microplate reader (Perkin Elmer). The percentage of cytokine inhibition was calculated with reference to DMSO treated cells and the IC50s were determined by GraphPad Prism software and presented in the table below.

IL-22 [3] = assay: Real-time qRT-PCR gene expression in TH17 cells (IL-22); assay type: cell-based, human; design: key: A: No change in gene expression observed relative to DMSO treated TH17 cells; B: Decreased gene expression observed relative to DMSO treated TH17 cells; C: Increased gene expression observed relative to DMSO treated TH17 cells; details: mRNA
Experimental: as §1, §2

IL-21 = assay: Real-time qRT-PCR gene expression in TH17 cells (IL-21); assay type: cell-based, human; design: key: A: No change in gene expression observed relative to DMSO treated TH17 cells; B: Decreased gene expression observed relative to DMSO treated TH17 cells; C: Increased gene expression observed relative to DMSO treated TH17 cells; details: mRNA
Experimental: as §1, §2

IL-17AF = assay: TH17 cytokine inhibition as measured by ELISA (IL-17AF); assay type: cell-based; details: 120 h; human CD4+ T cells differentiated to TH17 over 5 days, supernatant ELISA, vs DMSO
Experimental: as §1, §3

IL-17A [4] = assay: TH17 cytokine inhibition as measured by ELISA (IL-17A); assay type: cell-based; details: 120 h; human CD4+ T cells differentiated to TH17 over 5 days, supernatant ELISA, vs DMSO
Experimental: as §1, §3

FOXP3 = assay: Real-time qRT-PCR gene expression in TH17 cells (FOXP3); assay type: cell-based, human; design: key: A: No change in gene expression observed relative to DMSO treated TH17 cells; B: Decreased gene expression observed relative to DMSO treated TH17 cells; C: Increased gene expression observed relative to DMSO treated TH17 cells; details: mRNA
Experimental: as §1, §2

IL-17F [5] = assay: Real-time qRT-PCR gene expression in TH17 cells (IL-17F); assay type: cell-based, human; design: key: A: No change in gene expression observed relative to DMSO treated TH17 cells; B: Decreased gene expression observed relative to DMSO treated TH17 cells; C: Increased gene expression observed relative to DMSO treated TH17 cells; details: mRNA
Experimental: as §1, §2

IL-22 [6] = assay: TH17 cytokine inhibition as measured by ELISA (IL-22); assay type: cell-based; details: 120 h; human CD4+ T cells differentiated to TH17 over 5 days, supernatant ELISA, vs DMSO
Experimental: as §1, §3

[7] = TH17 cell viability (Prestoblue); assay type: cell-based; design: concentration or dose not given beside the values; details: human; percentage of DMSO treated cells; read-out: % viability of compound treated TH17 cells
Experimental: as §1
Cells were assayed for viability in the presence or absence of compound using Prestoblue® Cell Viability Reagent (Life Technologies) as per manufacturer's instructions after 30 minutes incubation of TH17 cells with reagent. Absorbance was measured at 570 nm and 600 nm using a microplate reader (Perkin Elmer) and data were analyzed as per manufacturer's instructions. Cell viability was expressed as a percentage of DMSO treated cells.

IL-23R = assay: Real-time qRT-PCR gene expression in TH17 cells (IL-23R); assay type: cell-based, human; design: key: A: No change in gene expression observed relative to DMSO treated TH17 cells; B: Decreased gene expression observed relative to DMSO treated TH17 cells; C: Increased gene expression observed relative to DMSO treated TH17 cells; details: mRNA
Experimental: as §1, §2

human RORγ LBD = human RORγ LBD (Homo sapiens (Human), UniProt P51449); assay: RORγ LBD binding (Human RORγ Assay System, INDIGO Biosciences)
Experimental: Compound binding to the human RORγ LBD was assessed using the Human RORγ Assay System (INDIGO Biosciences Inc.) as per manufacturer's instructions.

Chain of human RORγ LBD (P51449 269-508): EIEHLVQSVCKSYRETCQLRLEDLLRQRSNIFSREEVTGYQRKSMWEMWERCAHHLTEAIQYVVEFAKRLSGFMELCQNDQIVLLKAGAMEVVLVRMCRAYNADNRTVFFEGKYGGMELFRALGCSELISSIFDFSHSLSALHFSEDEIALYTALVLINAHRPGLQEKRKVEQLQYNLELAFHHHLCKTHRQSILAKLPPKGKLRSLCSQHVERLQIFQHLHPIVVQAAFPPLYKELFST

IC50 (IL-17F [2]) [µM]	IC50 (IL-17AF) [µM]	IC50 (IL-17A [4]) [µM]	IC50 (IL-22 [6]) [µM]	IC50 (human RORγ LBD) [µM]	Compound	Change in gene expression of compound treated TH17 cells relative to DMSO treated cells, IL-17A (IL-17A [1])	% change in TH17 cell number (TH17 cells)	Change in gene expression of compound treated TH17 cells relative to DMSO treated cells, IL-22 (IL-22 [3])	Change in gene expression of compound treated TH17 cells relative to DMSO treated cells, IL-21 (IL-21)	Change in gene expression of compound treated TH17 cells relative to DMSO treated cells, FOXP3 (FOXP3)	Change in gene expression of compound treated TH17 cells relative to DMSO treated cells, IL-17F (IL-17F [5])	viability [7] [%]	Change in gene expression of compound treated TH17 cells relative to DMSO treated cells, IL-23R (IL-23R)
< 10	< 10	< 10	< 10		NC(=O)c1ccc2c(c1)CCCN2Cc1ccc(C(O)(C(F)(F)F)C(F)(F)F)cc1 [Example 2, 1-(4-(1,1,1,3,3,3-hexafluoro-2-hydroxypropan-2-yl)benzyl)-1,2,3,4-tetrahydroquinoline-6-carboxamide]	A	B (≦50% decrease in cell proliferation relative to DMSO treated TH17 cells)	A	A	A	A	> 80	A
< 10	> 10	< 10			CN(C)C(=O)c1ccc2c(c1)CCC(=O)N2Cc1ccc(C(O)(C(F)(F)F)C(F)(F)F)cc1 [Example 7, 1-(4-(1,1,1,3,3,3-hexafluoro-2-hydroxypropan-2-yl)benzyl)-N,N-dimethyl-2-oxo-1,2,3,4-tetrahydroquinoline-6-carboxamide]							> 80	
> 10	> 10	> 10			NC(=O)c1ccc2c(c1)CCC(=O)N2Cc1ccc(C(O)(C(F)(F)F)C(F)(F)F)cc1 [Example 5, 1-(4-(1,1,1,3,3,3-hexafluoro-2-hydroxypropan-2-yl)benzyl)-2-oxo-1,2,3,4-tetrahydroquinoline-6-carboxamide]							> 80	
< 10		< 10	> 10		CNC(=O)c1ccc2c(c1)CCN2Cc1ccc(C(O)(C(F)(F)F)C(F)(F)F)cc1 [Example 12, 1-(4-(1,1,1,3,3,3-hexafluoro-2-hydroxypropan-2-yl)benzyl)-N-methylindoline-5-carboxamide]		B (≦50% decrease in cell proliferation relative to DMSO treated TH17 cells)					> 80	
> 10		< 10	> 10		CN(C)C(=O)c1ccc2c(ccc(=O)n2Cc2ccc(C(O)(C(F)(F)F)C(F)(F)F)cc2)c1 [Example 10, 1-(4-(1,1,1,3,3,3-hexafluoro-2-hydroxypropan-2-yl)benzyl)-N,N-dimethyl-2-oxo-1,2-dihydroquinoline-6-carboxamide]	A	B (≦50% decrease in cell proliferation relative to DMSO treated TH17 cells)	A	A	A	A	> 80	A
< 10		< 10	> 10		NC(=O)c1ccc2c(ccc(=O)n2Cc2ccc(C(O)(C(F)(F)F)C(F)(F)F)cc2)c1 [Example 8, 1-(4-(1,1,1,3,3,3-hexafluoro-2-hydroxypropan-2-yl)benzyl)-2-oxo-1,2-dihydroquinoline-6-carboxamide]	A	B (≦50% decrease in cell proliferation relative to DMSO treated TH17 cells)	C	A	A	B	> 80	A
> 10		> 10	> 10		CNC(=O)c1ccc2c(ccc(=O)n2Cc2ccc(C(O)(C(F)(F)F)C(F)(F)F)cc2)c1 [Example 9, 1-(4-(1,1,1,3,3,3-hexafluoro-2-hydroxypropan-2-yl)benzyl)-N-methyl-2-oxo-1,2-dihydroquinoline-6-carboxamide]	B	B (≦50% decrease in cell proliferation relative to DMSO treated TH17 cells)	B	B	A	B	> 80	A
< 10		< 10	< 10		NC(=O)c1ccc2c(c1)CCN2Cc1ccc(C(O)(C(F)(F)F)C(F)(F)F)cc1 [Example 11, 1-(4-(1,1,1,3,3,3-hexafluoro-2-hydroxypropan-2-yl)benzyl)indoline-5-carboxamide]		B (≦50% decrease in cell proliferation relative to DMSO treated TH17 cells)					> 80	
< 10		< 10	< 10		CN(C)C(=O)c1ccc2c(c1)CCN2Cc1ccc(C(O)(C(F)(F)F)C(F)(F)F)cc1 [Example 13, 1-(4-(1,1,1,3,3,3-hexafluoro-2-hydroxypropan-2-yl)benzyl)-N,N-dimethylindoline-5-carboxamide]		B (≦50% decrease in cell proliferation relative to DMSO treated TH17 cells)					> 80	
> 10	< 10	> 10		> 10	CNC(=O)c1ccc2c(c1)CCC(=O)N2Cc1ccc(C(O)(C(F)(F)F)C(F)(F)F)cc1 [Example 6, 1-(4-(1,1,1,3,3,3-hexafluoro-2-hydroxypropan-2-yl)benzyl)-N-methyl-2-oxo-1,2,3,4-tetrahydroquinoline-6-carboxamide]							> 80	
